Each block holds one molecule with its values, some of them ahead of it.
Assays:
[1] = system: hyperproliferative PKD cells (cloned polycystic kidney tissue cells); test: Concentration-response in primary cultures cloned from cystic kidney tissue; format: cell-based; conditions: 72 hour treatment; for IC50 / Max inhibition: hyperproliferative PKD cells
Description: (§1) The concentration-response effects of Compound DBM 228, Compound DBM 308, Compound DBM 101, and Compound DBM 328 were determined in primary cultures derived as ‘clones’ from cystic versus non-cystic kidney tissue. CRC graphs, IC50 values, and the percent maximum inhibition versus lowest doses without effect were calculated with GraphPad Prism software. […] There was also a marked separation in effect between hyperproliferative PKD cells (FIG. 5A and Table 3) and WT cells (FIG. 5B and Table 4).

[2] = system: WT cells (cloned non-cystic kidney tissue cells); test: Concentration-response in primary cultures cloned from non-cystic kidney tissue; format: cell-based; conditions: 72 hour treatment
Description: as §1

[3] = system: human cystic ADPKD and non-cystic renal epithelial cells; test: Proliferating versus confluent cystic ADPKD and normal renal cells; format: cell-based
Description: The compounds described herein are effective for inhibiting cellular proliferation in hyperproliferative cell types. To study the effects of these compounds, an assay was developed to differentiate the effects of the compounds on proliferating versus confluent cells. The assay design generates a proliferating density 24 hours after seeding and provides a 3-day active cell growth/doubling window in which to gauge the anti-proliferative effect of the compounds described herein. […] In this 3-day growth window, cell number increases with daily doublings across the 72-hour period (see FIG. 1).
In each assay design, compounds were added at the 24-hour timepoint after cell seeding. The effect of the compounds, relative to vehicle control and to VelCade (a proteasome inhibitor approved in the U.S. for treating relapsed multiple myeloma and mantle cell lymphoma) as a positive control, was assessed across the 3-day growth window for proliferating cells and on an already near confluent culture of cells for the same time period. […]
Cell number at the end of the assay was determined using the CELLTITER-GLO Luminescent Cell Viability Assay (Promega; Madison, Wis.). The CELLTITER-GLO Luminescent Cell Viability Assay is a homogeneous method of determining the number of viable cells in culture based on quantitation of the ATP present, an indicator of metabolically active cells. […]

NCI/ADR-RES = conditions: for potency in multi-drug resistant line, in words (FIG. 9): NCI-ADR/RES versus drug-responsive cells
Text: TGI means the drug concentration resulting in total growth inhibition or “cytostasis.” LC50 is the concentration of drug resulting in a 50% reduction in the measured cytosolic ATP at the end of the drug treatment as compared to that at the beginning, indicating a net loss of cells following treatment (cytotoxicity).
A major limitation with the anti-mitotic drugs in particular and in conventional chemotherapeutics in general, is their susceptibility to cellular mechanisms of adaptive/intrinsic multi-drug resistance (i.e., MDR efflux pumps such as p-glycoprotein, MRP1).

NCI-60 cell panel = test: NCI-60 cell panel, whole panel; format: cell-based, human; conditions: average in the NCI-60 cell panel
myeloma cells = format: cell-based; conditions: for GI50 / TGI / efficacy and potency (FIG. 4): myeloma cells; for GI50 / TGI: 48 h drug exposure
Description: For a typical screening experiment to identify the compounds, cells were seeded into 96- or 384-well microtiter plates at plating densities pre-determined for each cell line to ensure drug exposure occurs during the proliferative phase well before confluency is reached. After seeding, cells were incubated for 24 h prior to addition of experimental drugs. After 24 h, a test plate was assayed (CellTiterGlo—measurement of cytosolic ATP) to determine a baseline measurement of the cell population for each cell line at the time of drug addition. Experimental drugs were then added and cells were cultured for a 48 h drug exposure window. […] Values were calculated for each of these three parameters if the level of activity was reached; however, if the effect was not reached or was exceeded, the value for that parameter was expressed as greater or less than the maximum or minimum concentration tested.

tubulin = test: Biochemical tubulin polymerization; conditions: FIG. 11C
Description: Following 24 hours of treatment with Compound DBM 228, Compound DBM 318, and Compound DBM 328, caspase 3/7 activation in U251MG cells was determined. The detection of caspase 3/7 activation in U251MG cells indicates activation of apoptosis. Tubulin polymerization was determined for Compounds DBM 227, DBM 228, DBM 308, DBM 318, DBM 701, DBM 707, DBM 715, paclitaxel, vincristine, and negative control Compound DBM 328. […] Paclitaxel served as polymerization enhancer control and vincristine served as polymerization inhibitor control.

[4] = system: primary human glioblastoma multiforme (GBM) cells; test: Neurosphere growth of primary human GBM cells; format: cell-based; conditions: GBM cells grown in vitro on 3D neurospheres
Text: Data are expressed as mean±SEM and represent at least two independent experiments with sample replicates.

[5] = system: primary human idiopathic pulmonary fibrosis (IPF) myofibroblasts; test: Growth of primary human IPF myofibroblasts in vitro; format: cell-based; conditions: CRC

SMILES: COc1ccccc1Nc1nc(-c2cc3cccc(OC)c3oc2=O)cs1 [Compound DBM 101]
- IC50 [1]: 7.2 µM
- Max inhibition [1]: 77%
- IC50 [2]: > 100 µM
- Max inhibition [2]: 48%
- effect, in words ([3]; confluent diseased cells and proliferating and confluent normal cells): only partially affected and at mid-micromolar doses
- cytostatic effects, in words ([3]; proliferating cystic ADPKD cells): selective for hyperproliferative ‘diseased’ cells at potent nanomolar doses

SMILES: COc1ccccc1Nc1nc(-c2cc3cccc([N+](=O)[O-])c3oc2=O)cs1 [Compound DBM 227]
- IC50 (NCI/ADR-RES; read-out: potency in the NCI-ADR/RES cell line, multi-drug resistant NCI-ADR/RES): 0.1 µM
- GI50 (NCI-60 cell panel): 0.25 µM
- CC50 (myeloma cells): > 4 µM
- GI50 (myeloma cells): 0.137 µM
- TGI (myeloma cells): 404 nM
- effect on biochemical tubulin polymerization, in words (tubulin): modestly inhibited

SMILES: COc1ccccc1Nc1nc(-c2cc3cccc(Cl)c3oc2=O)cs1 [Compound DBM 308]
- CC50 (myeloma cells): > 4 µM
- efficacy and potency (FIG. 4) (myeloma cells): significant efficacy and potency
- GI50 (myeloma cells): 0.166 µM
- TGI (myeloma cells): 247 nM
- cytostatic effect, in words [1]: potent and effective analog
- IC50 [1]: 0.54 µM
- Max inhibition [1]: 84%
- IC50 [2]: > 100 µM
- Max inhibition [2]: 52%
- concentration giving equivalent cytotoxic effect [4]: 3 µM
- cytostatic effect, in words [4]: cytostatic effect at nanomolar doses
- effect on neurosphere growth, in words [4]: dose-dependent growth arrest to cytotoxic effect
- effect on biochemical tubulin polymerization, in words (tubulin): modestly inhibited

SMILES: COc1ccccc1Nc1nc(-c2cc3ccc(N)c([N+](=O)[O-])c3oc2=O)cs1 [Compound DBM 715]
- efficacy and potency (FIG. 4) (myeloma cells): significant efficacy and potency
- effect on biochemical tubulin polymerization, in words (tubulin): modestly inhibited

SMILES: Cn1nnc2c(C(N)=O)ncn2c1=O [TMZ, temozolomide, reference compound]
- concentration giving equivalent cytotoxic effect [4]: 500 µM

SMILES: CC(=O)O[C@H]1C(=O)[C@@]2(C)[C@H]([C@H](OC(=O)c3ccccc3)[C@]3(O)C[C@H](OC(=O)[C@H](O)[C@@H](NC(=O)c4ccccc4)c4ccccc4)C(C)=C1C3(C)C)[C@]1(OC(C)=O)CO[C@@H]1C[C@@H]2O [paclitaxel, reference compound]
- potency in multi-drug resistant line, in words (FIG. 9) (NCI/ADR-RES): significantly right-shifted

SMILES: CC[C@]1(O)C[C@H]2CN(CCc3c([nH]c4ccccc34)[C@@](C(=O)OC)(c3cc4c(cc3OC)N(C=O)[C@H]3[C@@](O)(C(=O)OC)[C@H](OC(C)=O)[C@]5(CC)C=CCN6CC[C@]43[C@@H]65)C2)C1 [vincristine, reference compound]
- potency in multi-drug resistant line, in words (FIG. 9) (NCI/ADR-RES): significantly right-shifted

Continued, in another order:

- GI50 (myeloma cells): 0.133 µM
SMILES: COc1ccccc1Nc1nc(-c2cc3cccc(Br)c3oc2=O)cs1 [Compound DBM 318]
- CC50 (myeloma cells): 0.226 µM
- efficacy and potency (FIG. 4) (myeloma cells): significant efficacy and potency
- TGI (myeloma cells): 164 nM
- effect on biochemical tubulin polymerization, in words (tubulin): modestly inhibited

- GI50 (myeloma cells): 2.11 µM
- IC50 [2]: > 100 µM
SMILES: COc1ccccc1Nc1nc(-c2cc3cccc(C(=O)O)c3oc2=O)cs1 [Compound DBM 328]
- CC50 (myeloma cells): > 4 µM
- TGI (myeloma cells): >4,000 nM
- IC50 [1]: 78 µM
- Max inhibition [1]: 48%
- Max inhibition [2]: 28%
- anti-proliferative effect, in words [5]: without effect throughout the CRC
- effect on biochemical tubulin polymerization, in words (tubulin): also inhibited microtubule polymerization

- GI50 (myeloma cells): 0.131 µM
SMILES: COc1ccccc1Nc1nc(-c2cc3cccc(C)c3oc2=O)cs1 [Compound DBM 707]
- CC50 (myeloma cells): 0.544 µM
- efficacy and potency (FIG. 4) (myeloma cells): significant efficacy and potency
- TGI (myeloma cells): 183 nM
- effect on biochemical tubulin polymerization, in words (tubulin): modestly inhibited

— US10369145B2, “Coumarin derivatives and methods of use in treating hyperproliferative diseases” (DISCOVERYBIOMED, INC., priority 2013, dated 2019)
